ChEMBL document CHEMBL3632604, “Anti-inflammatory Inositol Derivatives from the Whole Plant of Inula cappa” (J Nat Prod, 2015)
Active and inactive are the calls of the source. No cut-off for these calls is given here.

What was measured:
RAW264.7 [1] = experiment: Antiinflammatory activity in mouse RAW264.7 cells assessed as inhibition of LPS-induced nitric oxide production at 10 uM preincubated for 30 mins followed by LPS stimulation measured after 24 hrs by Griess assay relative to control; format: functional
RAW264.7 [2] = experiment: Antiinflammatory activity in mouse RAW264.7 cells assessed as inhibition of LPS-induced nitric oxide production preincubated for 30 mins followed by LPS stimulation measured after 24 hrs by Griess assay; format: functional, cell-based

| Compound | inhibition at 10 µM (RAW264.7 [1]) | IC50 (RAW264.7 [2]) | inhibition (RAW264.7 [1]) |
| --- | --- | --- | --- |
| C/C=C(/C)C(=O)O[C@@H]1[C@@H](O)[C@H](OC(=O)/C(C)=C\C)[C@@H](OC(=O)/C(C)=C\C)[C@@H](OC(=O)/C(C)=C\C)[C@H]1O | 47.9% | 19 µM | – |
| C/C=C(/C)C(=O)O[C@@H]1[C@@H](O)[C@H](OC(=O)/C(C)=C\C)[C@@H](OC(=O)/C(C)=C\C)[C@H](O)[C@@H]1O | 37.4% | 23.4 µM | – |
| C/C=C(/C)C(=O)O[C@@H]1[C@@H](O)[C@H](OC(=O)/C(C)=C\C)[C@H](OC(=O)/C(C)=C\C)[C@@H](O)[C@H]1OC(=O)/C(C)=C\C | 39.7% | 7 µM | – |
| C/C=C(/C)C(=O)O[C@H]1[C@@H](O)[C@@H](OC(C)=O)[C@H](OC(=O)/C(C)=C\C)[C@@H](OC(=O)/C(C)=C\C)[C@@H]1O | 38.3% | – | – |
| C/C=C(/C)C(=O)O[C@H]1[C@H](OC(=O)/C(C)=C\C)[C@H](OC(=O)/C(C)=C\C)[C@@H](O)[C@@H](OC(=O)/C(C)=C\C)[C@@H]1O | 59.6% | 9.9 µM | – |
| C/C=C(/C)C(=O)O[C@H]1[C@H](O)[C@H](O)[C@H](OC(=O)/C=C(\C)CC)[C@@H](O)[C@@H]1OC(=O)/C(C)=C\C | – | – | Active |
| C/C=C(/C)C(=O)O[C@@H]1[C@@H](O)[C@H](O)[C@@H](OC(=O)/C(C)=C\C)[C@@H](OC(=O)/C(C)=C\C)[C@H]1O | – | – | Active |
| C/C=C(/C)C(=O)O[C@@H]1[C@@H](O)[C@@H](OC(=O)/C(C)=C\C)[C@@H](OC(=O)/C(C)=C\C)[C@H](O)[C@H]1OC(=O)/C(C)=C\C | 42.1% | 9.8 µM | – |
| C/C=C(/C)C(=O)O[C@@H]1[C@@H](O)[C@H](OC(=O)/C(C)=C\C)[C@@H](OC(=O)/C(C)=C\C)[C@H](O)[C@@H]1OC(C)=O | – | 9.6 µM | Active |
| C/C=C(/C)C(=O)O[C@H]1[C@H](O)[C@@H](O)[C@H](OC(=O)/C(C)=C\C)[C@H](OC(=O)/C(C)=C\C)[C@H]1O | – | 8.9 µM | Active |
| Cc1ccc(-c2cc(C(F)(F)F)nn2-c2ccc(S(N)(=O)=O)cc2)cc1 [CELECOXIB] | 59.2% | 1.6 µM | – |
| C/C=C(/C)C(=O)O[C@@H]1[C@H](O)[C@@H](OC(C)=O)[C@@H](OC(=O)/C(C)=C\C)[C@H](OC(=O)/C(C)=C\C)[C@H]1O | 43.4% | 11.9 µM | – |
| C/C=C(/C)C(=O)O[C@@H]1[C@@H](O)[C@H](OC(=O)/C(C)=C\C)[C@@H](OC(=O)/C(C)=C\C)[C@H](O)[C@@H]1OC(=O)C(C)C | 47.2% | 7.6 µM | – |
| C/C=C(/C)C(=O)O[C@@H]1[C@H](OC(C)=O)[C@@H](OC(C)=O)[C@@H](OC(=O)/C(C)=C\C)[C@H](O)[C@H]1OC(=O)/C(C)=C\C | – | 7.1 µM | Active |
| C/C=C(/C)C(=O)O[C@@H]1[C@@H](O)[C@@H](OC(=O)/C=C(\C)CC)[C@H](O)[C@@H](O)[C@@H]1OC(=O)/C(C)=C\C | – | 8.4 µM | Active |
